{
  "source": "patent US20200024662A1",
  "about": "“METHODS FOR TREATING OPIOID ADDICTION” (ASSUREX HEALTH, INC., priority 2016, published 2020)",
  "key": {"[1]": {"system": "patients treated with Methadone in the START trial", "test": "Baseline model (GeneSight Analgesic test) binning vs Methadone completion", "format": "in vivo, human", "details": "Full Sample", "description": "(§1) For the model analyses, models were developed that sort patients into one of three categories, Green (‘G’) Yellow (‘Y’) or Red (‘R’). Patients determined to be high risk for non-completion by the model are placed into the Red Bin. Patients at intermediate risk of non-completion are placed in the Yellow Bin, and for this study, Yellow Bin patients are treated the same as patients found to be at Low Risk of non-completion, or those who are placed in the Green Bin. Thus, the Green and Yellow bins are combined for analysis.\nThe GeneSight Analgesic test (commercial test available from Assurex Health, Inc.) was used as a baseline to determine High Risk patients entering methadone maintenance therapy. Furthremore, the following PK, PD and PK/PD models were evaluated.\n(§2) Samples from patients treated with Methadone in the START trial described in Example 1 above were used (N=352). […] Each model was tested as described below against Sample 1, Sample 2 and/or the Full Sample.\n(§3) Pearson's product moment, Chi-square with Yates correction were calculated. Diagnostic tests, odds ratios, Pearson's product moment, Chi-square with Yates correction were calculated using MEDCALC and R version 3.3.1."}, "[2]": {"system": "patients treated with Methadone in the START trial", "test": "PK/PD Model 2 binning vs Methadone completion", "format": "in vivo, human", "description": "as §1\nThree separate PK/PD Models were generated by combining the PK model with each of the three PD models separately as follows. For each PKPD model, the corresponding PD risk score was added to the raw PK score (bin). A total PD risk score that was negative, represents a reduction of the baseline PK score, while a total PD risk score that was positive represented an increase in the baseline PK score.\nas §2, §3"}, "[3]": {"details": "PK/PD Model 2, Full Sample, Green bin, Risk Score −2.2 to 1"}, "[4]": {"details": "PK/PD Model 2, Full Sample, Red bin, Risk Score 2.7 to 4.7"}, "[5]": {"details": "PK/PD Model 2, Full Sample, Yellow bin, Risk Score 1.1 to 2.5"}, "[6]": {"details": "PK/PD Model 2, Sample 1, Green bin, Risk Score −2.3 to 2"}, "[7]": {"details": "PK/PD Model 2, Sample 1, Red bin, Risk Score 3.3 to 6.7"}, "[8]": {"details": "PK/PD Model 2, Sample 1, Yellow bin, Risk Score 2.2 to 3.2"}, "[9]": {"details": "PK/PD Model 2, Sample 2, Green bin, Risk Score −2.2 to 1"}, "[10]": {"details": "PK/PD Model 2, Sample 2, Red bin, Risk Score 2.7 to 4.7"}, "[11]": {"details": "PK/PD Model 2, Sample 2, Yellow bin, Risk Score 1.1 to 2.5"}},
  "data": [
    {"smiles": "CCC(=O)C(CC(C)N(C)C)(c1ccccc1)c1ccccc1", "note": "(stereo not drawn) [Methadone, methadone]", "values": [
      {"measurement": "Completers", "setting": "[1]; Green bin", "value": 170},
      {"measurement": "Non Completers", "setting": "[1]; Green bin", "value": 19},
      {"measurement": "Completers", "setting": "[1]; Red bin", "value": 28},
      {"measurement": "Non Completers", "setting": "[1]; Red bin", "value": 3},
      {"measurement": "Completers", "setting": "[1]; Yellow bin", "value": 109},
      {"measurement": "Non Completers", "setting": "[1]; Yellow bin", "value": 23},
      {"measurement": "Completers", "setting": "[2]; [3]", "value": 167},
      {"measurement": "Non Completers", "setting": "[2]; [3]", "value": 8},
      {"measurement": "Completers", "setting": "[2]; [4]", "value": 60},
      {"measurement": "Non Completers", "setting": "[2]; [4]", "value": 20},
      {"measurement": "Completers", "setting": "[2]; [5]", "value": 80},
      {"measurement": "Non Completers", "setting": "[2]; [5]", "value": 17},
      {"measurement": "Completers", "setting": "[2]; [6]", "value": 88},
      {"measurement": "Non Completers", "setting": "[2]; [6]", "value": 3},
      {"measurement": "Completers", "setting": "[2]; [7]", "value": 27},
      {"measurement": "Non Completers", "setting": "[2]; [7]", "value": 8},
      {"measurement": "Completers", "setting": "[2]; [8]", "value": 41},
      {"measurement": "Non Completers", "setting": "[2]; [8]", "value": 9},
      {"measurement": "Completers", "setting": "[2]; [9]", "value": 92},
      {"measurement": "Non Completers", "setting": "[2]; [9]", "value": 2},
      {"measurement": "Completers", "setting": "[2]; [10]", "value": 19},
      {"measurement": "Non Completers", "setting": "[2]; [10]", "value": 9},
      {"measurement": "Completers", "setting": "[2]; [11]", "value": 48},
      {"measurement": "Non Completers", "setting": "[2]; [11]", "value": 6}
    ]}
  ]
}
